{"source": "paper PMC11881906", "about": "“Development of xanthone derivatives as effective broad-spectrum antimicrobials: Disrupting cell wall and inhibiting DNA synthesis” (Science Advances, 2025)", "key": {"[1]": {"tested_on": "P. aeruginosa ATCC 9027", "assay": "Murine corneal infection model", "format": "in vivo, mice", "conditions": "topical, 2 days; XT17 5 mg/ml, gatifloxacin 3 mg/ml; vs 5% glucose control", "description": "(§1) Female C57BL/6 mice (average weight, 20 g) were used for the in vivo efficacy experiments. Mice were housed in a specific pathogen–free facility on a 12-hour light-dark cycle, under the condition with ad libitum access to irradiation sterilized rodent diet and aseptic water. […]. These in vivo experiments were approved by the Experimental Animal Center of South China Agricultural University and conducted in accordance with the policies of the Ministry of Health of China.\n(§2) The in vivo efficacy of compound XT17 was investigated in a murine corneal infection model. Before infection, the mice were immunosuppressed with three intraperitoneal injections of cyclophosphamide (100 mg/kg) over 5 days. After anesthesia with 2.5% avertin (500 mg/kg, ip), the left corneas of mice were scratched with 15 μl of S. aureus ATCC 29213 or P. aeruginosa ATCC 9027 (approximately 5 × 10^7 CFU/ml). Following 1 day of infection, the infected mice were randomly assigned into […] (n = 5) and subsequently administered with 0.5% compound XT17, 5% glucose solution, 5% vancomycin, or 0.3% gatifloxacin topically. S. aureus–caused murine corneal infections were treated four times a day for three consecutive days. Only 2 days of treatment were given for P. aeruginosa–caused murine corneal infections. On the first day, the drug was administered every 20 min for 1 hour and then three times at 2-hour intervals on the second day. The mice were given a 5% glucose solution as a negative control in the absence of any antimicrobial agent treatment. The infected corneas were collected after the mice were euthanized, and the number of viable bacteria was counted using MHA plates."}, "[2]": {"tested_on": "S. aureus ATCC 29213", "assay": "MIC, broth microdilution", "format": "cell-based", "conditions": "Staphylococcus aureus, ATCC29213, 24 h, read-out: MIC90 S. aureus ATCC 29213", "description": "(§3) MIC was determined using the broth microdilution method in accordance with Clinical and Laboratory Standards Institute guidelines. All compounds were dissolved in dimethyl sulfoxide (DMSO; final DMSO concentration of less than 0.5%) and sterile double-distilled water and then diluted with Mueller-Hinton broth (MHB). Each compound’s stock solution was serially twofold diluted, resulting in concentrations ranging from 0.39 to 100 μg/ml, and thereafter added to sterile 96-well plates. All bacterial cell suspensions were adjusted in MHB to attain a starting inoculum of 1 × 10^6 cells/ml. A total of 100 μl volume of the bacterial suspension was then added to each well. Following a 24-hour incubation at 37°C, the optical density at 600 nm (OD600) was confirmed by measuring absorbance at 600 nm with a BioTek microplate reader. […] All measurements were repeated three times with duplicates each time."}, "[3]": {"tested_on": "MRSA N315", "assay": "MIC, broth microdilution", "format": "cell-based", "conditions": "Staphylococcus aureus, 24 h, read-out: MIC90 MRSA N315", "description": "as §3"}, "[4]": {"tested_on": "MRSA NCTC 10442", "assay": "MIC, broth microdilution", "format": "cell-based", "conditions": "Staphylococcus aureus, 24 h, read-out: MIC90 MRSA NCTC 10442", "description": "as §3"}, "[5]": {"tested_on": "S. aureus ATCC 29213", "assay": "Murine corneal infection model", "format": "in vivo, mice", "conditions": "topical, four times daily for 3 days; XT17 5 mg/ml, vancomycin 50 mg/ml; vs 5% glucose control", "description": "as §1, §2"}, "[6]": {"tested_on": "S. aureus ATCC 29213", "assay": "Time-kill kinetic assay", "format": "cell-based, Staphylococcus aureus", "conditions": "10× MIC, 24 hours", "description": "The bacterial cultures were standardized to obtain an initial density that ranged from 10^5 to 10^6 cells/ml. The cultures were incubated in a shaking bath at 37°C. Viable counts were determined at 0-, 0.5-, 1.0-, 2.0-, 4.0-, 8.0-, and 24-hour intervals by spotting 10-μl aliquots of serially 10-fold diluted cultures onto Mueller-Hinton agar (MHA) plates. […] All measurements were repeated three times with duplicates each time."}, "[7]": {"tested_on": "rabbit erythrocytes", "assay": "Hemolysis assay", "format": "cell-based", "conditions": "concentration causing 50% hemolysis of red blood cells; 1 hour, 37°C", "description": "The hemolytic activity of antimicrobial agents was investigated as previously described ([70]). Briefly, the rabbit erythrocytes were centrifuged at 2500 rpm for 3 min before being washed twice with sterile phosphate-buffered saline (PBS) (pH 7.4). Subsequently, the erythrocytes were diluted with PBS to a final concentration of 8% (v/v). The DMSO-dissolved compounds were twofold serially diluted in PBS to achieve a final concentration with DMSO less than 0.5%. […] Sterile PBS and 0.2% Triton X-100 were used as negative and positive controls, respectively. After 1 hour of incubation at 37°C, the tested samples were centrifuged at 2500 rpm for 5 min, and aliquots of the supernatant were added to 96-well microplates. The hemoglobin release was determined by measuring the absorbance at 576 nm using a BioTek multimode reader. The percentage of hemolytic activity was calculated using the following formula: Hemolysis rate (%) = [OD576 (compound) − OD576 (PBS)]/[OD576 (Triton X-100) − OD576 (PBS)] × 100. All measurements were repeated three times with duplicates each time."}, "[8]": {"tested_on": "E. coli ATCC 25922", "assay": "MIC, broth microdilution", "format": "cell-based, Escherichia coli", "conditions": "Escherichia coli, ATCC25922, 24 h, read-out: MIC90 E. coli ATCC 25922", "description": "as §3"}, "[9]": {"tested_on": "P. aeruginosa ATCC 9027", "assay": "Serial passage resistance induction", "format": "cell-based, Pseudomonas aeruginosa", "conditions": "20-day passages at 0.5× MIC", "description": "The bacteria were grown in a medium containing 0.5× MIC of each compound to prepare the bacterial suspension for the next MIC determination. The MICs were then recorded after incubation at 37°C for 24 hours. Daily passages were continued until the initial MIC increased by more than fourfold. The stability of acquired resistance was investigated by MIC determination and repeated for 20 days."}, "[10]": {"tested_on": "E. coli ATCC 25922", "assay": "RNA-seq transcriptome response", "format": "cell-based, Escherichia coli", "conditions": "4× MIC, 2 hours", "description": "After exposure, 1-ml aliquots of cells were immediately pelleted at 4°C by centrifugation for 2 min at 2000 rpm. The supernatants were removed and immediately frozen in liquid nitrogen. The samples were stored at −80°C for later total RNA isolation. Total RNA was extracted using the bacterial RNA kit (Omega Bio-Tek, USA) according to the manufacturer’s instructions. The RNA integrity number values were obtained to assess RNA quality using an Agilent Genomics 2200 Tape Station instrument.\nA total amount of 2 to 5 ng of the RNA per sample was executed as the input material to construct each cDNA library for RNA-seq using the NEBNext Ultra Directional RNA Library prep kit from Illumina. The quality of the resulting libraries was checked using Agilent High Sensitivity DNA chips to ensure proper library size distribution and the absence of small adapters.\nRead mapping was aligned using Bowtie2 ([74]). HTSeq v0.6.1 was used for quantification of expression levels ([75]). DESeq2 on the R package (v1.12.4) was used to calculate DEGs. Differential expression was computed using edgeR: exactTest for each treatment versus the untreated control ([76]). The E. coli database used for mapping was GCF_017357505.1_ASM1735750v1_genomic.fna. Both the GO and KEGG (KEGG Ortholog database) enrichment analyses were done with the Fisher’s exact test. All P values were adjusted with the Benjamini-Hochberg procedure to generate false discovery rates (adjusted P values). GO enrichment analysis was carried out using the clusterProfiler package on the R platform ([77]). KEGG pathway mapping and figure generation were performed with the PathView website ([78]). COG of protein databases were searched with an E value of 1e^-5. For hierarchal clustering analysis of gene expression, the gene expression levels were normalized to z scores of log10 (FPKM + 1), where FPKM is fragments per kilobase per million. For hierarchal clustering analysis of the regulation of transcription factors, the unweighted pair group method with arithmetic mean (UPGMA) method was used as the clustering method. […] Volcano plots were generated by plot_volcano from soothsayer (https://github.com/jolespin/soothsayer) in Python v.3.6.6. Directed networks were constructed and plotted using NetworkX and Matplotlib Python packages, respectively. Hierarchical clustering analysis and heatmap calculation were performed with the pheatmap package on the R platform. The umap package on the R platform was used for uniform manifold approximation and projection (UMAP) analysis of FPKM vectors of each transcriptome. The figures were created via the ggplot2 package ([79])."}}, "data": [{"smiles": "COc1c(N2CCNC(C)C2)c(F)cc2c(=O)c(C(=O)O)cn(C3CC3)c12", "note": "(stereo not shown) [gatifloxacin, reference compound]", "values": [{"measurement": "log reduction in viable bacterial colonies in the infected corneas", "setting": "[1]", "result": 3.08, "unit": "log"}]}, {"smiles": "CN[C@H](CC(C)C)C(=O)N[C@H]1C(=O)N[C@@H](CC(N)=O)C(=O)N[C@H]2C(=O)N[C@H]3C(=O)N[C@H](C(=O)N[C@H](C(=O)O)c4cc(O)cc(O)c4-c4cc3ccc4O)[C@H](O)c3ccc(c(Cl)c3)Oc3cc2cc(c3O[C@@H]2O[C@H](CO)[C@@H](O)[C@H](O)[C@H]2O[C@H]2C[C@](C)(N)[C@H](O)[C@H](C)O2)Oc2ccc(cc2Cl)[C@H]1O", "note": "[VAN, vancomycin, reference compound]", "values": [{"measurement": "MIC90", "setting": "[2]", "result": 0.78, "unit": "µg/mL"}, {"measurement": "MIC90", "setting": "[3]", "result": 1.56, "unit": "µg/mL"}, {"measurement": "MIC90", "setting": "[4]", "result": 1.56, "unit": "µg/mL"}, {"measurement": "log reduction in viable bacterial colonies in the infected corneas", "setting": "[5]", "result": 5.57, "unit": "log"}, {"measurement": "log decrease in bacterial load", "setting": "[6]", "result": 4.56, "unit": "log"}, {"measurement": "HC50", "setting": "[7]", "result": ">200", "unit": "µg/mL"}, {"measurement": "MIC90", "setting": "[8]", "result": "> 50", "unit": "µg/mL"}]}, {"smiles": "O=C(O)c1cn(C2CC2)c2cc(N3CCNCC3)c(F)cc2c1=O", "note": "[CPF, ciprofloxacin, reference compound]", "values": [{"measurement": "increase in MIC values during passages", "setting": "[9]", "result": "~64", "unit": "fold"}, {"measurement": "genes expressed", "setting": "[10]", "result": 4682, "unit": "genes"}, {"measurement": "Log2FC dnaE (DNA polymerase III subunit alpha)", "setting": "[10]; vs untreated", "result": 1.7739}, {"measurement": "Log2FC dnaN (DNA polymerase III subunit beta)", "setting": "[10]; vs untreated", "result": 3.0865}, {"measurement": "Log2FC dnaQ (DNA polymerase III subunit epsilon)", "setting": "[10]; vs untreated", "result": 1.3670}, {"measurement": "Log2FC dnaT (primosomal protein DnaT)", "setting": "[10]; vs untreated", "result": 2.2444}, {"measurement": "Log2FC dnaX (DNA polymerase III subunit gamma/tau)", "setting": "[10]; vs untreated", "result": 1.7268}, {"measurement": "Log2FC gyrA (DNA topoisomerase (ATP-hydrolyzing) subunit A)", "setting": "[10]; vs untreated", "result": 2.2544}, {"measurement": "Log2FC gyrB (DNA topoisomerase (ATP-hydrolyzing) subunit B)", "setting": "[10]; vs untreated", "result": 2.4048}, {"measurement": "Log2FC holB (DNA polymerase III subunit delta')", "setting": "[10]; vs untreated", "result": 1.9890}, {"measurement": "Log2FC holD (DNA polymerase III subunit psi)", "setting": "[10]; vs untreated", "result": 2.4551}, {"measurement": "Log2FC parC (DNA topoisomerase IV subunit A)", "setting": "[10]; vs untreated", "result": 1.5215}, {"measurement": "Log2FC parE (DNA topoisomerase IV subunit B)", "setting": "[10]; vs untreated", "result": 2.4557}, {"measurement": "Log2FC priA (primosomal protein N')", "setting": "[10]; vs untreated", "result": 2.8529}, {"measurement": "Log2FC priB (primosomal replication protein N)", "setting": "[10]; vs untreated", "result": 3.5288}, {"measurement": "Log2FC priC (primosomal replication protein N'')", "setting": "[10]; vs untreated", "result": 1.7101}, {"measurement": "Log2FC recA (recombinase RecA)", "setting": "[10]; vs untreated", "result": 6.2751}, {"measurement": "Log2FC recF (DNA replication/repair protein RecF)", "setting": "[10]; vs untreated", "result": 2.2046}, {"measurement": "Log2FC recG (ATP-dependent DNA helicase RecG)", "setting": "[10]; vs untreated", "result": 1.1384}, {"measurement": "Log2FC recJ (single-stranded-DNA-specific exonuclease RecJ)", "setting": "[10]; vs untreated", "result": 1.9882}, {"measurement": "Log2FC recO (DNA repair protein RecO)", "setting": "[10]; vs untreated", "result": 1.9736}, {"measurement": "Log2FC recR (recombination mediator RecR)", "setting": "[10]; vs untreated", "result": 1.8874}, {"measurement": "Log2FC ruvA (Holliday junction branch migration protein RuvA)", "setting": "[10]; vs untreated", "result": 2.8598}, {"measurement": "Log2FC ruvB (Holliday junction branch migration DNA helicase RuvB)", "setting": "[10]; vs untreated", "result": 3.4475}, {"measurement": "Log2FC ruvC (crossover junction endodeoxyribonuclease RuvC)", "setting": "[10]; vs untreated", "result": 1.8052}, {"measurement": "Log2FC ssb1 (single-stranded DNA-binding protein SSB1)", "setting": "[10]; vs untreated", "result": 2.6468}, {"measurement": "down-regulated genes", "setting": "[10]; vs untreated", "result": 130, "unit": "genes"}, {"measurement": "up-regulated genes", "setting": "[10]; vs untreated", "result": 2246, "unit": "genes"}, {"measurement": "differentially expressed genes", "setting": "[10]; vs untreated, P < 0.05, absolute log2 fold change > 1", "result": 2376, "unit": "genes"}]}]}
